Tests used:
[1] = target: T1, E2C-I159C hDAT (C90A/C306A/I159C) (Homo sapiens, UniProt Q01959, C306A/C90A/I159C); assay: MTSET assay, [3H]DA uptake in HEK293 cells; assay type: cell-based
T1 construct: expressed in transfected cells; host or cells: HEK293 cells, transient, pcDNA3.1+
T1 sequence (Q01959 1-620 C90A/I159C/C306A): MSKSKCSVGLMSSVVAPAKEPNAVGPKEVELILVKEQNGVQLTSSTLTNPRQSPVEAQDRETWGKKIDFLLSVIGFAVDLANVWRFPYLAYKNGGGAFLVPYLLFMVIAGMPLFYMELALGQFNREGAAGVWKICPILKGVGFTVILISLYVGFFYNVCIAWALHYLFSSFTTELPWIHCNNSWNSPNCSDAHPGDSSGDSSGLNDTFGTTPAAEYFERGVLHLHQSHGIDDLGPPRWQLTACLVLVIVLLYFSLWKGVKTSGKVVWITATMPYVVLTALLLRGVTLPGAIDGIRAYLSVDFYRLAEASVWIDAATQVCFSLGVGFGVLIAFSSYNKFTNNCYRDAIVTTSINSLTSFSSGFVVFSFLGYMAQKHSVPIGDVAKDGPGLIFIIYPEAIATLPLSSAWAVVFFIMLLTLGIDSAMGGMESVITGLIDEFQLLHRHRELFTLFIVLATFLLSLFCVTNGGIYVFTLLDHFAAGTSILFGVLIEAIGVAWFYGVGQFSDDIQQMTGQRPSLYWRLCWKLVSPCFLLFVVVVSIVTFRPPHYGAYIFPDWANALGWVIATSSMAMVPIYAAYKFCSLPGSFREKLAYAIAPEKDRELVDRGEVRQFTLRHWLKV
From the text: All mutants on hDAT were generated based on the predictions made using our computational model, as described previously using site-directed mutagenesis based on the wild-type hDAT (WT hDAT) sequence (NCBI, cDNA clone MGC: 164,608 IMAGE: 40,146,999) (Quizon et al. [2016]). The combination of hDAT mutations on Asp206 and His547 (Aspartic acid 206 to leucine and histidine 547 to alanine, D206L/H547A) were predicted to eliminate two hydrogen bonds between Tat and hDAT. In addition, the combination of mutations on Tyr88, Asp206, and His547 (tyrosine88 to phenylalanine and aspartic acid 206 to leucine and histidine 547 to alanine, Y88F/D206L/H547A) were predicted to eliminate three hydrogen bonds from the Tat-hDAT complex. Two extracellular cysteine90 and cysteine306 residues on WT hDAT were mutated to alanine as E2C hDAT (C90A/C306A hDAT), rendering the E2C hDAT MTSET-insensitive background (Pedersen et al. [2014]). A triple mutation of the two cysteine90 and 306 residues to alanine and […] to cysteine on WT hDAT was generated as E2C-I159C hDAT (C90A/C306A/I159C) for MTSET-sensitive construct. A combination of C90A/C306A/H547A was generated as E2C/H547A hDAT for MTSET-insensitive control for H547A. To determine whether H547A-enhanced DA transport is mediated by changing transporter conformation, two combinations of C90A/C306A/I159C/H547A and C90A/C306A/I159A/H547A were generated as E2C-I159C/H547A and E2C-I159A/H547A for positive and negative controls for MTSET sensitive background, respectively. Synthetic cDNA encoding hDAT subcloned into pcDNA3.1+ (provided by Dr. Haley E Melikian, University of Massachusetts) was used as a template to generate mutants using site-directed mutagenesis performed by GENEWIZ (South Plainfield, NJ). DNA sequencing was also performed by GENEWIZ to confirm the sequences of the mutant constructs. Plasmid DNA were propagated and purified using the Qiagen Hi-speed maxi prep plasmid DNA isolation kit (Qiagen, Valencia, CA, USA).
This assay was performed based on the previous report with minor modifications (Loland et al. [2004], [2008]). First, we generated five WT hDAT based plasmid construct for MTSET-insensitive or sensitive background as we described above. HEK293 cells were grown in poly-d-lysine coated plates at a density of 1 × 10^5 cells/cm^2 were transfected with different E2C- associated hDAT background constructs: E2C hDAT, E2C-I159C hDAT, E2C/H547A hDAT, E2C-I159C/H547A or E2C-I159A/H547A. Twenty-four hours after the transfection, cells were washed twice with 1× KRH buffer, and preincubated with or without the presence of 10 µM nomifensine (for non-specific uptake) and MTSET for 10 min at room temperature. MTSET at 1 mM final concentration was chosen based on a pilot study on optimizing MTSET concentrations (0.1, 0.5 or 1.0 mM). […] Because MTSET is easily hydrolyzed in solution, the amount needed for a 10 × stock was weighed out and dissolved in 1 × KRH buffer just right before adding to the assigned wells, for a 10-fold dilution (final concentration of 1 mM in final volume of 250 µl). […] Cells were immediately washed twice with ice-cold 1 × KRH buffer to terminate the reaction and were lysed rapidly with the addition of 1 % SDS. Cell lysates were collected after incubation for 1 h at room temperature and radioactivity was determined the next day.

[2] = target: T1, E2C-I159C hDAT (C90A/C306A/I159C); set-up: method as in Loland et al. [2004], [2008]; conditions: 0.5 mM MTSET for 10 min; ref Loland et al. [2004], [2008]; cited from earlier work

With `C[N+](C)(C)CCSS(C)(=O)=O` [MTSET, [2-(trimethylammonium)ethyl]-methanethiosulfonate] the “inhibition of [3H]DA uptake relative to no MTSET addition” value ([1]; 1 mM MTSET, 10 min, HEK293, pilot study Fig. 8a) was 55%, the “[3H]DA uptake in the presence of MTSET” value ([1]; 1 mM MTSET, HEK293, Fig. 8b) was 46.0 ± 6.0 and the “effect on [3H]DA uptake” value ([1]; MTSET 0.1, 0.5, 1.0 mM, pilot study Fig. 8a) was “concentration-dependently inhibited”. For the same compound, the “inhibition on E2C-I159C” value [2] was 40%.

Reference: article PMC8329121 (Journal of Neuroimmune Pharmacology, 2021)
